The values below come from PubChem BioAssay (NCI).

Test systems include UACC-62 melanoma; HS 578T breast; MCF7 breast; SK-MEL-5 melanoma; OVCAR-8 ovarian; SNB-75 CNS; LOX IMVI melanoma; MDA-MB-435; HCT-15 colon; NCI-H460 lung.
Common to all, as to experiment: NCI tumour cell line growth inhibition, 48 h

Several values for one entry are separate records, joined by “and”; a condition that tells them apart may be missing. Equal entries are not always repeated.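 Five compound concentrations were applied to cells in 96-well plates for 48 hours; endpoints were derived by simple linear interpolation of the resulting dose-response curve. GI50: concentration for 50% inhibition of growth. TGI marks complete inhibition of growth.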 Where a SMILES comes first, the peptide text is derived from it. The star is where a group is joined. Boc = CC(C)(C)OC(=O)*; OBn = c1ccc(CO*)cc1; Bn = c1ccc(C*)cc1 Some results are limits rather than exact numbers.

For the compound `O=C1NC(N2CCOCC2)=N/C1=C\c1ccccc1`, the TGI in the assay on UACC-62 melanoma, in the assay with HS 578T breast, in the assay on MCF7 breast, in the assay with SK-MEL-5 melanoma, with OVCAR-8 ovarian and in the assay on SNB-75 CNS was above 100 µM each time. For the same compound, the TGI in the assay with LOX IMVI melanoma, with MDA-MB-435 and in the assay on HCT-15 colon was above 100 µM each time.

As to `O=C(O)CC(Cc1ccccc1)C(=O)O` (centres undefined), the TGI in the assay on NCI-H460 lung, in the assay with UACC-62 melanoma, in the assay on HS 578T breast, with MCF7 breast, in the assay with SK-MEL-5 melanoma and with OVCAR-8 ovarian was above 100 µM throughout. Besides, the TGI in the assay with LOX IMVI melanoma, in the assay on MDA-MB-435 and in the assay with HCT-15 colon was above 100 µM in each case.

Take `CO/C=C(/C(=O)OC)c1ccccc1[C@H]1C[C@@H]1c1ccc(OC)cc1`: the TGI is 83 µM in the assay with NCI-H460 lung; 64.7 µM in the assay with UACC-62 melanoma; 84.5 µM in the assay with HS 578T breast; above 100 µM in the assay on MCF7 breast; 26.2 µM in the assay on SK-MEL-5 melanoma; above 100 µM in the assay with OVCAR-8 ovarian. Further, the values for the TGI in the assay with MDA-MB-435 and in the assay with HCT-15 colon were 27.8 µM and 66.1 µM, respectively.

Turning to `COc1ccc(/C=N/N=C(N)N)c(C(=O)O)c1OC`, the TGI in the assay with NCI-H460 lung, in the assay on UACC-62 melanoma, with SK-MEL-5 melanoma, in the assay with OVCAR-8 ovarian, in the assay on SNB-75 CNS and in the assay with HCT-15 colon was above 100 µM throughout.

As to `CC12CCC3=C(CSC4=C3CSc3ccccc34)C1=CCCC2=O` (centres undefined), the TGI was above 100 µM in the assay with NCI-H460 lung; 53 µM in the assay with SK-MEL-5 melanoma; above 100 µM in the assay with OVCAR-8 ovarian; above 100 µM with LOX IMVI melanoma; above 100 µM in the assay with HCT-15 colon.

For the compound `COc1c(Cl)ccc(Cl)c1-c1nnc(-c2c(Cl)c(Cl)c(Cl)c(Cl)c2-c2nc3ccc(C(=O)c4ccccc4)cc3[nH]2)o1`, the TGI in the assay on HS 578T breast is above 100 µM; in the assay with MCF7 breast, above 100 µM; with SK-MEL-5 melanoma, 36 µM; in the assay on OVCAR-8 ovarian, above 100 µM; in the assay on SNB-75 CNS it was above 100 µM; in the assay on LOX IMVI melanoma it was above 100 µM. Moreover, the TGI in the assay on MDA-MB-435 is 68 µM; with HCT-15 colon, above 100 µM.

Turning to `CC(C)OCC(O)COc1cc(=O)oc2ccccc12` (centres undefined), the TGI in the assay with NCI-H460 lung, with UACC-62 melanoma, in the assay with HS 578T breast, in the assay with MCF7 breast, with SK-MEL-5 melanoma and in the assay on OVCAR-8 ovarian was above 100 µM each time. The TGI with LOX IMVI melanoma, in the assay with MDA-MB-435 and in the assay on HCT-15 colon was above 100 µM each time.

Regarding `CC(C)CC(NC(=O)C(CCC(=O)OCc1ccccc1)NC(=O)OC(C)(C)C)C(=O)NC(COCc1ccccc1)C(=O)NC(Cc1ccccc1)C(=O)O` (centres undefined) (Boc-E(OBn)LS(Bn)F-OH; configuration not given here), the TGI in the assay with NCI-H460 lung, with UACC-62 melanoma, in the assay with HS 578T breast, in the assay with MCF7 breast, in the assay on SK-MEL-5 melanoma and in the assay with OVCAR-8 ovarian was above 100 µM throughout. In addition, the TGI with SNB-75 CNS and in the assay with HCT-15 colon was above 100 µM in each case.

`CSc1nc(NC2CC2)c2c(n1)Sc1nc3ccccc3n1N=C2`: the TGI is above 100 µM in the assay on NCI-H460 lung; 76.9 µM in the assay on UACC-62 melanoma; 24.2 µM in the assay with HS 578T breast; 96.2 µM with MCF7 breast; 49.5 µM in the assay with SK-MEL-5 melanoma; 85.3 µM in the assay with OVCAR-8 ovarian. Also, the TGI in the assay on LOX IMVI melanoma, in the assay on MDA-MB-435 and in the assay on HCT-15 colon was above 100 µM each time.

For the compound `C(=C/c1ccc2nc(-c3ccc(/C=C/C=N/NC4=NCCCN4)cc3)cn2c1)/C=N/NC1=NCCCN1`, the TGI with NCI-H460 lung was 73.2 µM; with UACC-62 melanoma, above 100 µM; in the assay on HS 578T breast it was 42.2 µM; with SK-MEL-5 melanoma it was above 100 µM; in the assay on OVCAR-8 ovarian, 39 µM; in the assay on SNB-75 CNS, above 100 µM. Besides, the TGI with MDA-MB-435 and in the assay on HCT-15 colon was above 100 µM each time.

On to `C=CCCCN1C(=O)C2C3c4ccccc4C(C=O)(c4ccccc43)C2C1=O` (centres undefined), for which the TGI with NCI-H460 lung worked out at 30.3 µM; in the assay on UACC-62 melanoma it was 36.6 µM; in the assay with MCF7 breast, 28.5 µM; in the assay on SK-MEL-5 melanoma, 23.5 µM; with OVCAR-8 ovarian it was 26.5 µM; in the assay on LOX IMVI melanoma, 22.1 µM. Moreover, the TGI with HCT-15 colon came to 21.5 µM.

With `N#CCCN(CCN(CCN(C(=O)Nc1ccccc1)c1ccccc1)C(=O)Nc1ccccc1)C(=O)Nc1ccccc1`, the TGI with UACC-62 melanoma, in the assay on HS 578T breast, in the assay on MCF7 breast, with SK-MEL-5 melanoma, in the assay on OVCAR-8 ovarian and in the assay on SNB-75 CNS was above 100 µM throughout. In addition, the TGI in the assay with LOX IMVI melanoma, in the assay on MDA-MB-435 and in the assay with HCT-15 colon was above 100 µM in each case.

In the case of `Cc1cc2nc(N)n[n+]([O-])c2cc1C`, the TGI in the assay with UACC-62 melanoma, in the assay with HS 578T breast, with MCF7 breast, with SK-MEL-5 melanoma, with OVCAR-8 ovarian and in the assay on LOX IMVI melanoma was above 100 µM in each case. The TGI in the assay on MDA-MB-435 and in the assay with HCT-15 colon was above 100 µM each time.

As to `COC(=O)c1ccc2c(c1)CCN2C(=O)c1cc2c(cc1Br)OCO2`, the TGI was 50 µM in the assay with NCI-H460 lung; 50 µM and > 100 µM in the assay on UACC-62 melanoma; 50 µM and > 100 µM in the assay on MCF7 breast; 5.5 µM and 14.1 µM in the assay on SK-MEL-5 melanoma; 50 µM and 14.7 µM in the assay on OVCAR-8 ovarian; 50 µM with SNB-75 CNS. In addition, the TGI in the assay with LOX IMVI melanoma was 50 µM and 94.7 µM; in the assay with MDA-MB-435, 0.994 µM; with HCT-15 colon it was 50 µM and 23.5 µM. The GI50 with UACC-62 melanoma is 0.995 µM; in the assay with MCF7 breast it was 0.567 µM; in the assay on SK-MEL-5 melanoma, 0.581 µM; in the assay on OVCAR-8 ovarian, 1.52 µM; with LOX IMVI melanoma, 0.936 µM; in the assay on HCT-15 colon it was 0.378 µM.

Consider `CC(=O)Nc1ccc(S(=O)(=O)/N=c2/sc(S(N)(=O)=O)nn2C)cc1`, for which the TGI in the assay on NCI-H460 lung, in the assay with UACC-62 melanoma, with OVCAR-8 ovarian, with SNB-75 CNS, in the assay with MDA-MB-435 and in the assay with HCT-15 colon was above 100 µM in each case.
